Data from US11021457B2, “Class of isoindolone-imide ring-1,3-dione-2-ene compounds, composition and use thereof” (WIGEN BIOMEDICINE TECHNOLOGY (SHANGHAI) CO., LTD., priority 2017, dated 2021).
Read-outs that look alike come from different tables or passages of the source.

What was measured:
LC3B = LC3B (Homo sapiens (Human), UniProt Q9GZQ8); assay: Fluorescence polarization experiment targeting LC3B (GST-LC3B with FITC-labeled peptide)
K562 = assay: Inhibition of tumor cell proliferation, CellTiter-Glo, K562; assay type: cell-based; conditions: compound concentration 50 μM, 72 hours; for cell survival rate (%) at 50 µM: Homo sapiens, K562, read-out: Inhibitory activity against proliferation (cell survival rate) K562
Summary of the method: (§1)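 Compound tested at 50 μM for 72 h, read by CellTiter-Glo. Survival rate = (treated−blank)/(control−blank) RLU ×100, binned as +++ ≤30%, ++ >30-≤60%, + 60-<90%. Seeding 2000-10000 cells/well depending on growth rate.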

MDA-MB-453 = assay: Inhibition of tumor cell proliferation, CellTiter-Glo, MDA-MB-453; assay type: cell-based; conditions: compound concentration 50 μM, 72 hours; for cell survival rate (%) at 50 µM: Homo sapiens, MDA-MB-453, read-out: Inhibitory activity against proliferation (cell survival rate) MDA-MB-453
Summary of the method: as §1

A549 = assay: Inhibition of tumor cell proliferation, CellTiter-Glo, A549; assay type: cell-based; conditions: compound concentration 50 μM, 72 hours; for cell survival rate (% of control) at 50 µM: Homo sapiens, A549, read-out: Inhibitory activity against proliferation (cell survival rate) A549
Summary of the method: as §1

BxPC-3 = assay: Inhibition of tumor cell proliferation, CellTiter-Glo, BxPC-3; assay type: cell-based; conditions: compound concentration 50 μM, 72 hours; for cell survival rate (%) at 50 µM: Homo sapiens, BXPC-3, read-out: Inhibitory activity against proliferation (cell survival rate) BxPC-3
Summary of the method: as §1

SU-DHL6 = assay: Inhibition of tumor cell proliferation, CellTiter-Glo, SU-DHL6; assay type: cell-based; conditions: compound concentration 50 μM, 72 hours; for cell survival rate (% of control) at 50 µM: Homo sapiens, SU-DHL-6, read-out: Inhibitory activity against proliferation (cell survival rate) SU-DHL6
Summary of the method: as §1

RPMI-8226 = assay: Inhibition of tumor cell proliferation, CellTiter-Glo, RPMI-8226; assay type: cell-based; conditions: compound concentration 50 μM, 72 hours; for cell survival rate (% of control) at 50 µM: Homo sapiens, RPMI-8226, read-out: Inhibitory activity against proliferation (cell survival rate) RPMI-8226
Summary of the method: as §1

[1] = GST-LC3B 180 nM, FITC-labeled peptide 18 nM, 25° C.

SMILES	IC50 (LC3B; [1])	Inhibitory activity against proliferation (cell survival rate) K562 (K562)	Inhibitory activity against proliferation (cell survival rate) MDA-MB-453 (MDA-MB-453)	Inhibitory activity against proliferation (cell survival rate) A549 (A549)	Inhibitory activity against proliferation (cell survival rate) BxPC-3 (BxPC-3)	Inhibitory activity against proliferation (cell survival rate) SU-DHL6 (SU-DHL6)	Inhibitory activity against proliferation (cell survival rate) RPMI-8226 (RPMI-8226)	IC50 (LC3B)	cell survival rate (%) at 50 µM (K562)	cell survival rate (%) at 50 µM (MDA-MB-453)	cell survival rate (% of control) at 50 µM (A549)	cell survival rate (%) at 50 µM (BxPC-3)	cell survival rate (% of control) at 50 µM (SU-DHL6)	cell survival rate (% of control) at 50 µM (RPMI-8226)
O=C1CCC(N2Cc3c(NC(=O)CCCCNC=C4C(=O)CC(c5ccccc5)CC4=O)cccc3C2=O)C(=O)N1 (stereo not drawn) [Compound 46]	100 to 1000 µM	++ (30<survival rate (%)≤60)	+++ (survival rate (%)≤30)	+++ (survival rate (%)≤30)	+ (60≤survival rate (%)<90)	+ (60≤survival rate (%)<90)	++ (30<survival rate (%)≤60)							
O=C1CCC(N2Cc3c(NC(=O)CCCNC=C4C(=O)CC(c5ccccc5)CC4=O)cccc3C2=O)C(=O)N1 (stereo not drawn) [Compound 47]	100 to 1000 µM	+ (60≤survival rate (%)<90)	+++ (survival rate (%)≤30)	+ (60≤survival rate (%)<90)	++ (30<survival rate (%)≤60)	+++ (survival rate (%)≤30)	+ (60≤survival rate (%)<90)							
O=C1CCC(N2Cc3c(NC(=O)COCCNC=C4C(=O)CC(c5ccccc5)CC4=O)cccc3C2=O)C(=O)N1 (stereo not drawn) [Compound 48]	100 to 1000 µM	+++ (survival rate (%)≤30)	+++ (survival rate (%)≤30)	+++ (survival rate (%)≤30)	+ (60≤survival rate (%)<90)	+++ (survival rate (%)≤30)	+++ (survival rate (%)≤30)							
O=C1CCC(N2Cc3c(NC(=O)c4ccc(NC=C5C(=O)CC(c6ccccc6)CC5=O)cc4)cccc3C2=O)C(=O)N1 (stereo not drawn) [Compound 50]	15 to 100 µM	+ (60≤survival rate (%)<90)	+ (60≤survival rate (%)<90)	+ (60≤survival rate (%)<90)	+ (60≤survival rate (%)<90)	+++ (survival rate (%)≤30)	++ (30<survival rate (%)≤60)							
CC(C)[C@H](NC=C1C(=O)CC(c2ccccc2)CC1=O)C(=O)N[C@@H](CCCNC(N)=O)C(=O)Nc1cccc2c1CN(C1CCC(=O)NC1=O)C2=O (stereo partly drawn) [Compound 59]	100 to 1000 µM	+++ (survival rate (%)≤30)	+ (60≤survival rate (%)<90)	+++ (survival rate (%)≤30)	++ (30<survival rate (%)≤60)	+++ (survival rate (%)≤30)	+++ (survival rate (%)≤30)							
O=C1CCC(N2Cc3c(NC(=C4C(=O)CC(c5ccccc5)CC4=O)c4ccccc4)cccc3C2=O)C(=O)N1 (stereo not drawn) [Compound 75]	100 to 1000 µM	+++ (survival rate (%)≤30)	+++ (survival rate (%)≤30)	+++ (survival rate (%)≤30)	+ (60≤survival rate (%)<90)	+++ (survival rate (%)≤30)	+++ (survival rate (%)≤30)							
CC(C)[C@H](NC(=O)CCC(=O)OCCN1CCN(CCNC=C2C(=O)CC(c3ccccc3)CC2=O)CC1)C(=O)N[C@@H](CCCNC(N)=O)C(=O)Nc1ccc(COC(=O)Nc2cccc3c2CN(C2CCC(=O)NC2=O)C3=O)cc1 (stereo partly drawn) [Compound 89]	15 to 100 µM	++ (30<survival rate (%)≤60)	+++ (survival rate (%)≤30)	++ (30<survival rate (%)≤60)	+ (60≤survival rate (%)<90)	++ (30<survival rate (%)≤60)	++ (30<survival rate (%)≤60)							
CC(C)[C@H](NC(=O)CN1CCN(CCNC=C2C(=O)CC(c3ccccc3)CC2=O)CC1)C(=O)N[C@@H](CCCNC(N)=O)C(=O)Nc1ccc(COC(=O)Nc2cccc3c2CN(C2CCC(=O)NC2=O)C3=O)cc1 (stereo partly drawn) [Compound 90]	15 to 100 µM	+++ (survival rate (%)≤30)	++ (30<survival rate (%)≤60)	++ (30<survival rate (%)≤60)	++ (30<survival rate (%)≤60)	+++ (survival rate (%)≤30)	++ (30<survival rate (%)≤60)							
O=C1CC(c2ccccc2)CC(=O)C1=CNCCN1CCN(C(=O)N2C(=O)CCC(N3C(=O)c4ccccc4C3=O)C2=O)CC1 (stereo not drawn) [Compound 101]	15 to 100 µM	+++ (survival rate (%)≤30)	++ (30<survival rate (%)≤60)	+++ (survival rate (%)≤30)	+ (60≤survival rate (%)<90)	++ (30<survival rate (%)≤60)	+++ (survival rate (%)≤30)							
CCCNC(=O)C1CC(=O)C(=CNc2cccc3c2CN(C2CCC(=O)NC2=O)C3=O)C(=O)C1 (stereo not drawn) [Compound 114]								100 to 1000 µM	30 to 60%	60 to 90%	30 to 60%	60 to 90%	30 to 60%	60 to 90%
CCC(=O)/C(=C/Nc1cccc2c1CN(C1CCC(=O)NC1=O)C2=O)C(=O)CCc1ccccc1 (stereo not drawn) [Compound 128]	100 to 1000 µM	+++ (survival rate (%)≤30)	+++ (survival rate (%)≤30)	+++ (survival rate (%)≤30)	+ (60≤survival rate (%)<90)	+++ (survival rate (%)≤30)	+++ (survival rate (%)≤30)							
O=C1CCC(N2Cc3c(NC=C4C(=O)CCCC4=O)cccc3C2=O)C(=O)N1 (stereo not drawn) [Compound 132]								100 to 1000 µM	30 to 60%	60 to 90%	60 to 90%	30 to 60%	≤ 30%	≤ 30%
